Assay [1] has as its system megakaryocytic cells from primary hematopoietic progenitor cells. Description: Megakaryocyte growth in expanded CD34+ cells transduced with shControl or shTRB3. It is filed as cell-based, human. As to conditions: for MK cell number: cultured one week with anagrelide; for Inhibition of megakaryocyte growth: vs DMSO. From the text:
UT7/mpl cells (clone 5.1) (Goncalves et al., Leukemia 12:1355-1366 (1998)) or human umbilical cord blood CD34+ hematopoietic cells were infected with pLKO.1-puro lentiviral vectors carrying short hairpin (sh) RNA sequences against human TRB-3 (designated shTRB3.1 to shTRB3.5) or a non-targeting scramble shRNA (designated shControl). shRNA clones were purchased from Sigma.
Expanded CD34+ cells (see Materials and Methods Section of Example 1) were infected as described above and then were sub-cultured under standard megakaryocyte culture conditions with anagrelide or an equivalent amount of vehicle for 2 days prior to addition of 1 μg/ml puromycin and further differentiation for 5 days.
CD61 expression of live cells was analysed by flow cytometry following double staining with 7-amino actinomycin D and the FITC-conjugated monoclonal antibody Y2/51 (Dako cytomation) or an isotype-matched control antibody; the latter was used to set a boundary between positive and negative cells.
Table 1 illustrates the effect of TRB-3 silencing on the ability of anagrelide-to inhibit megakaryocyte growth in cultures of primary hematopoietic progenitor cells. Expanded CD34+ cells were infected overnight with shControl or with a mixture of shTRB3.4 and shTRB3.5. Cells were then cultured for one week in the presence of anagrelide or an equivalent amount of vehicle under standard megakaryocyte culture conditions, except that 1 ug/ml puromycin was added after 2 days. The number of megakaryocytic cells was determined by cell counting of viable cells and flow cytometry.

In another assay the test system is TRB-3 mRNA expression. Description: TRB-3 expression assay (quantitative RT-PCR) in megakaryocyte cultures of expanded CD34+ cells. It is filed as cell-based, human. On the procedure: CD34+ cells were thawed, washed by centrifugation (300 g for 10 min at room temperature) in Stemspan™ medium (Stem Cell Technologies, London, UK) and then seeded in 48-well Falcon plates at a density of 1.5×10^5 cells/ml in the above culture medium supplemented with 100 U/ml penincillin, 0.1 mg/ml streptomycin, 0.25 μg/ml amphothericin B, 2% human umbilical cord blood plasma, 40 ng/ml TPO (Insight, UK), 50 ng/ml SCF, 100 ng/ml Flt3 ligand, and 10 ng/ml IL-3 (all from R&D Systems, Abingdon, UK). Cells were grown four days at 37° C. in a humidified incubator under 5% CO2/95% air.
The expanded cells were washed free of cytokines by centrifugation as above and re-suspended to 1.5×10^5 cells/ml by addition of fresh Stemspan™ culture medium containing 2% human umbilical cord plasma and 40 ng/ml TPO. Cells were then grown in 48-well Falcon plates at 37° C. in a humidified incubator under 5% CO2/95% air in the presence of either anagrelide, another test agent or an equivalent amount of vehicle (between 0.01% to 0.05% DMSO). At various time points the cells were harvested and processed for RNA extraction or for determination of CD61 antigen expression and total cell counting.
Cellular RNA was extracted with RNeasy reagent (Qiagen) according to the manufacturer's instructions and cDNA was prepared from 0.1-0.5 μg total RNA template using random hexamer primers and a High Capacity Reverse Transcription kit or a High Capacity RNA-to-cDNA Master Mix (Applied Biosystems). cDNA aliquots were either used immediately or stored at −20° C. for PCR analysis at a later stage. cDNA aliquots (equivalent to 5-10 ng of input RNA) were then analysed in duplicates by real-time PCR using gene-specific TaqMan probes on an ABI Prism 7500 Sequence Detection System (Applied Biosystems). Probes for TRB-3 (Hs00221754_m1), GpIIb (Hs00166246_m1), GUSB (Hs99999908_m1) and TBP (Hs99999910_m1) were commercially available from the Assay on Demand gene expression collection (Applied Biosystems). Thermal conditions were the following: 20 seconds at 95° C. followed by 40 cycles of 3 seconds at 94° C. and 30 seconds at 60° C. Reactions without cDNA were included as controls. Relative mRNA expression levels were calculated using the comparative cycle threshold (CT) method (Livak and Schmittgen, 2001) using the CT values obtained for β-glucuronidase (GUSB) or TATA Box binding protein (TBP) as internal references. For each target gene to be quantified, validation experiments were performed to determine that the efficiency of amplification of target and reference gene was approximately equal. When analysing dose responses EC50 values were calculated with Prism software (Version 4, GraphPad Software Inc, CA, USA).
In order to ascertain the sensitivity of the described method, dose-response curves were constructed based on the effect of anagrelide on TRB-3 mRNA expression using different numbers of cells. Cells were cultured for 4 days under standard MK culture conditions in the presence of increasing concentrations of anagrelide. RNA was extracted from the cells, and TRB-3 mRNA expression was determined by quantitative RT-PCR using β-glucuronidase as an endogenous reference. Results shown in FIG. 3 were expressed relative to the TRB-3 mRNA level detected in cells treated with vehicle alone. EC50 values were calculated using a sigmoidal dose response (variable slope) curve-fit model. Values in brackets represent the 95% CI. Error bars (SD) smaller than the size of the symbol are not shown.
Expanded CD34+ cells (see Materials and Methods Section of Example 1) were pre-incubated for various lengths of time under standard megakaryocyte culture conditions in the absence of the test agent and then treated with the test agent or an equivalent amount of vehicle for 24 hours prior to harvesting. TRB-3 mRNA expression was determined as described in the Materials and Methods Section of Example 1.

In assay [2] the test system is phosphodiesterase type III. As to conditions: cited from earlier work.
The mark [3] stands for this setting: shTRB3 (shTRB3.4 + shTRB3.5)-transduced cells.

As usually defined, the EC50 is the concentration at which the effect is half-maximal.

For the molecule `O=C1CN2Cc3c(ccc(Cl)c3Cl)N=C2N1` [Anagrelide, 6,7-dichloro-1,5-dihydroimidazo (2,1-b)quinazolin-2(3H)-one], the MK cell number in assay [1] (shControl-transduced cells) is 106 ×10^3; in assay [1] (setting [3]) it was 202 ×10^3. The “Inhibition of megakaryocyte growth” value in assay [1] (shControl-transduced cells) worked out at 49.3%; in assay [1] (setting [3]), 21.5%. Moreover, the “TRB-3 mRNA response to 24 h exposure” value in the assay on TRB-3 mRNA expression (1 μM, 24 h exposure following the refractory phase (after initial 2-3 days)) is listed as “sharp increase in TRB-3 expression”; in the assay with TRB-3 mRNA expression (1 μM, exposure confined to the initial 2-3 days of culture) it was “relatively weak”. Further, in the assay with TRB-3 mRNA expression (1 μM, last 24 h vs continuous), the “TRB-3 expression, 24 h treatment after three days of culture vs continuous four day exposure” value was “higher level of TRB-3 expression than if the drug was present for the entire four day period of culture”. Besides, the “extent of TRB-3 expression response (fold increase vs vehicle)” value with TRB-3 mRNA expression (4 days, RNA extracted from 25,000 cells) was found to be 1.8 fold; in the assay with TRB-3 mRNA expression (4 days, RNA extracted from 200,000 cells) it was 3 fold. The EC50 in the assay on TRB-3 mRNA expression (Homo sapiens, 96 h, 4 days, standard MK culture, RNA extracted from 200,000 cells, 95% CI 9 to 27 nM, read-out: EC50 for increase in TRB-3 mRNA expression) stood at 15 nM. In addition, in assay [2], the “inhibition of phosphodiesterase type III” value is given as “potent inhibitor”.

Turning to “TPO: thrombopoietin, the primary signal for megakaryocyte production”, the “effect on TRB-3 expression” value with TRB-3 mRNA expression is recorded as “reduces TRB-3 expression”.

Source of the values: patent US9017936B2, “Assays for agents affecting megakaryocyte development” (Shire Human Genetic Therapies, Inc., priority 2009, dated 2015).
